According to ChEMBL document CHEMBL4229478, “Synthesis, Characterization, and Biological Evaluation of a Porphyrin-Based Photosensitizer and Its Isomer for Effective Photodynamic Therapy against Breast Cancer” (J Med Chem, 2018):
The source made the active and inactive calls. No cut-off for these calls is given here.

Tests used:
4T1 [1] = test: Phototoxicity against mouse 4T1 cells assessed as cell viability at 0.5 uM preincubated for 4 hrs followed by 0.5 J/cm2 light irradiation and measured after 24 hrs by MTT assay relative to control; format: functional; conditions: 4T1, light or radiation study, read-out: Activity
4T1 [2] = test: Phototoxicity against mouse 4T1 cells assessed as cell viability at 0.5 uM preincubated for 4 hrs followed by 1 J/cm2 light irradiation and measured after 24 hrs by MTT assay relative to control; format: functional; conditions: 4T1, light or radiation study, read-out: Activity
4T1 [3] = test: Antitumor activity against mouse 4T1 cells xenografted in BALB/c mouse assessed as inhibition of tumor volume at 4 mg/kg, iv pretreated for 24 hrs followed by 50 J/cm2 light irradiation and measured at day 22 post dose relative to control; format: functional; conditions: 4T1, light or radiation study
MDA-MB-231 [4] = test: Phototoxicity against human MDA-MB-231 cells assessed as cell viability at 0.5 uM preincubated for 4 hrs followed by 0.5 to 2 J/cm2 light irradiation and measured after 24 hrs by MTT assay; format: functional, cell-based
4T1 [5] = test: Antitumor activity against mouse 4T1 cells xenografted in BALB/c mouse assessed as inhibition of tumor volume at 2 mg/kg, iv pretreated for 24 hrs followed by 50 J/cm2 light irradiation and measured at day 22 post dose relative to control; format: functional; conditions: 4T1, light or radiation study
MCF7 = test: Phototoxicity against human MCF7 cells assessed as cell viability at 0.5 uM preincubated for 4 hrs followed by 0.5 to 2 J/cm2 light irradiation and measured after 24 hrs by MTT assay; format: functional, cell-based
HUVEC = test: Phototoxicity against HUVEC assessed as cell viability at 0.5 uM preincubated for 4 hrs followed by 0.5 to 2 J/cm2 light irradiation and measured after 24 hrs by MTT assay; format: cell-based; conditions: human
[6] = Dark toxicity against human MDA-MB-231 cells assessed as cell viability at 0.5 uM after 24 hrs by MTT assay; format: cell-based; conditions: mda-mb-231, 24 h
[7] = Selectivity index, ratio of dark toxicity against mouse 4T1 cells at 0.5 uM to phototoxicity against mouse 4T1 cells at 0.5 uM; format: cell-based; conditions: read-out: Selectivity Index
[8] = Selectivity index, ratio of dark toxicity against human MCF7 at 0.5 uM cells to phototoxicity against human MCF7 cells at 0.5 uM; format: cell-based; conditions: read-out: Selectivity Index
[9] = Drug uptake in human MDA-MB-231 cells at 5 uM after 4 hrs by fluorescence microscopic analysis; format: ADME, cell-based; conditions: mda-mb-231, 4 h
[10] = Drug uptake in human MDA-MB-231 cells at 5 uM by flow cytometric analysis; format: ADME, cell-based; conditions: mda-mb-231, 5 µM, TDE = time-dependent effect
[11] = Drug uptake in kidney of BALB/c mouse xenografted with mouse 4T1 cells at 10 mg/kg, iv measured at 12 hrs post injection by IVIS spectrum imaging; format: ADME, organism-based; conditions: in vivo
[12] = Drug uptake in lung of BALB/c mouse xenografted with mouse 4T1 cells at 10 mg/kg, iv measured at 12 hrs post injection by IVIS spectrum imaging; format: ADME, organism-based; conditions: in vivo
[13] = Drug uptake in spleen of BALB/c mouse xenografted with mouse 4T1 cells at 10 mg/kg, iv measured at 12 hrs post injection by IVIS spectrum imaging; format: ADME, organism-based; conditions: in vivo
[14] = Drug uptake in tumor of BALB/c mouse xenografted with mouse 4T1 cells at 10 mg/kg, iv measured up to 3 to 24 hrs post injection by fluorescence assay; format: ADME, organism-based, Neoplasm; conditions: in vivo
[15] = Tmax in tumor of BALB/c mouse xenografted with mouse 4T1 cells at 10 mg/kg, iv measured after […] by fluorescence assay; format: ADME, organism-based, Neoplasm
MDA-MB-231 [16] = test: Phototoxicity against human MDA-MB-231 cells assessed as cell viability incubated with ROS scavenger NAC 1 hr before 2 J/cm2 light irradiation by MTT assay relative to control; format: functional
MDA-MB-231 [17] = test: Induction of apoptosis in human MDA-MB-231 cells assessed as early apoptotic cells after 24 hrs by Annexin-V FITC/propidium iodide staining based flow cytometric analysis (reference value: 1.22%); format: cell-based; conditions: mda-mb-231, 24 h
MDA-MB-231 [18] = test: Induction of apoptosis in human MDA-MB-231 cells assessed as late apoptotic cells after 24 hrs by Annexin-V FITC/propidium iodide staining based flow cytometric analysis (reference value: 1.28%); format: cell-based; conditions: mda-mb-231, 24 h
MDA-MB-231 [19] = test: Induction of apoptosis in human MDA-MB-231 cells assessed as early apoptotic cells after 24 hrs upon light irradiation by Annexin-V FITC/propidium iodide staining based flow cytometric analysis (reference value: 1.22%); format: functional
MDA-MB-231 [20] = test: Induction of apoptosis in human MDA-MB-231 cells assessed as late apoptotic cells after 24 hrs upon light irradiation by Annexin-V FITC/propidium iodide staining based flow cytometric analysis (reference value: 1.28%); format: functional
MDA-MB-231 [21] = test: Induction of apoptosis in human MDA-MB-231 cells assessed as viable cells after 24 hrs upon light irradiation by Annexin-V FITC/propidium iodide staining based flow cytometric analysis (reference value: 93.27%); format: functional
4T1 [22] = test: Antitumor activity against mouse 4T1 cells xenografted in BALB/c mouse assessed as inhibition of tumor weight at 1 to 4 mg/kg, iv pretreated for 24 hrs followed by 50 J/cm2 light irradiation and measured at day 22 post last dose; format: functional, organism-based
4T1 [23] = test: Antitumor activity against mouse 4T1 cells xenografted in BALB/c mouse assessed as induction of tissue destruction with large spaces at 4 mg/kg, iv pretreated for 24 hrs followed by 50 J/cm2 light irradiation by hematoxylin and eosin staining based light microscopic analysis; format: functional, organism-based
4T1 [24] = test: Induction of apoptosis in mouse 4T1 cells xenografted in BALB/c mouse at 4 mg/kg, iv pretreated for 24 hrs followed by 50 J/cm2 light irradiation by TUNEL assay; format: functional, organism-based
4T1 [25] = test: Induction of apoptosis in mouse 4T1 cells xenografted in BALB/c mouse at 4 mg/kg, iv after 24 hrs by TUNEL assay; format: functional, organism-based
Mus musculus [26] = test: Toxicity in BALB/c mouse xenografted with mouse 4T1 cells assessed as effect on body weight at 4 mg/kg, iv pre-tretaed for 24 hrs followed by 50 J/cm2 light irradiation and measured at day 22 post dose; format: organism-based; conditions: in vivo
Mus musculus [27] = test: Hepatotoxicity in BALB/c mouse xenografted with mouse 4T1 cells assessed as pathological changes in liver at 4 mg/kg, iv measured at day 22 post dose by hematoxylin and eosin staining based light microscopic analysis; format: toxicity, organism-based; conditions: in vivo
Mus musculus [28] = test: Nephrotoxicity in BALB/c mouse xenografted with mouse 4T1 cells assessed as pathological changes in kidney at 4 mg/kg, iv measured at day 22 post dose by hematoxylin and eosin staining based light microscopic analysis; format: toxicity, organism-based; conditions: in vivo
Mus musculus [29] = test: Toxicity in BALB/c mouse xenografted with mouse 4T1 cells assessed as pathological changes in spleen at 4 mg/kg, iv measured at day 22 post dose by hematoxylin and eosin staining based light microscopic analysis; format: organism-based; conditions: in vivo
Mus musculus [30] = test: Toxicity in BALB/c mouse xenografted with mouse 4T1 cells assessed as pathological changes in lung at 4 mg/kg, iv measured at day 22 post dose by hematoxylin and eosin staining based light microscopic analysis; format: organism-based; conditions: in vivo
Mus musculus [31] = test: Toxicity in BALB/c mouse xenografted with mouse 4T1 cells assessed as pathological changes in lung at 1 to 4 mg/kg, iv pre-tretaed for 24 hrs followed by 50 J/cm2 light irradiation and measured at day 22 post dose by hematoxylin and eosin staining based light microscopic analysis; format: organism-based; conditions: in vivo

SMILES | viability at 0.5 µM (4T1 [1]) | viability at 0.5 µM (4T1 [2]) | inhibition in vivo at 4 mg/kg (4T1 [3]) | Activity (MDA-MB-231 [4]) | inhibition in vivo at 2 mg/kg (4T1 [5]) | Activity (MCF7) | Activity (HUVEC) | Activity [6] | selectivity ratio at 0.5 µM [7] | selectivity ratio at 0.5 µM [8] | Drug uptake [9] | Drug uptake [10] | Drug uptake [11] | Drug uptake [12] | Drug uptake [13] | Drug uptake [14] | Tmax [15] | Activity (MDA-MB-231 [16]) | Activity (MDA-MB-231 [17]) | Activity (MDA-MB-231 [18]) | further results
C=CC1=C(C)c2cc3[nH]c(cc4nc(cc5[nH]c(cc1n2)c(C)c5CCC(=O)[O-])C(CCC(=O)[O-])=C4C)c(C)c3C(C)OCCCCCC.[Na+].[Na+] (stereo unspecified) | 98% | 76.1% | 45.4% | Active | 28% | Active | Non-Toxic | Non-Toxic | 21.7 | 24.2 | Active | Tde | Not Active | Not Active | Not Active | Active | 12 h | >80% | 4.02% | 2.73% | Activity (MDA-MB-231 [19]): 7.17%; Activity (MDA-MB-231 [20]): 40.09%; Activity (MDA-MB-231 [21]): 41.63%; inhibition (4T1 [22]): Active; Activity (4T1 [23]): Active; Activity (4T1 [24]): Active; Activity (4T1 [25]): inactive; Activity (Mus musculus [26]): Non-Toxic; Activity (Mus musculus [27]): Non-Toxic; Activity (Mus musculus [28]): Non-Toxic; Activity (Mus musculus [29]): Non-Toxic; Activity (Mus musculus [30]): Non-Toxic; Activity (Mus musculus [31]): Non-Toxic
C=Cc1c(C)c2cc3nc(cc4[nH]c(cc5nc(cc1[nH]2)C(C)=C5C(C)OCCCCCC)c(C)c4CCC(=O)[O-])C(CCC(=O)[O-])=C3C.[Na+].[Na+] (stereo unspecified) | 86.4% | 61.7% | 65.4% | Active | 43% | Active | Non-Toxic | Non-Toxic | 68.5 | 90.8 | Active | Tde | Not Active | Not Active | Not Active | Active | 12 h | >80% | 3.72% | 2.34% | Activity (MDA-MB-231 [19]): 3.82%; Activity (MDA-MB-231 [20]): 53.54%; Activity (MDA-MB-231 [21]): 32.52%; inhibition (4T1 [22]): Active; Activity (4T1 [23]): Active; Activity (4T1 [24]): Active; Activity (4T1 [25]): inactive; Activity (Mus musculus [26]): Non-Toxic; Activity (Mus musculus [27]): Non-Toxic; Activity (Mus musculus [28]): Non-Toxic; Activity (Mus musculus [29]): Non-Toxic; Activity (Mus musculus [30]): Non-Toxic; Activity (Mus musculus [31]): Non-Toxic
